From patent US20120016014A1, “BENZOTHIOPHENE CARBOXAMIDE COMPOUNDS, COMPOSITION AND APPLICATIONS THEREOF” (INDIAN INSTITUTE OF SCIENCE, priority 2010, published 2012)

Columns and labels:
[1] = test system: hepatic cell stages of P. berghei; assay: Inhibition of hepatic cell stages (EEFs) of P. berghei; assay type: cell-based
Tail flick latency test = conditions: 15 mg/kg b. wt. vs Ibuprofen 50 mg/kg b. wt., 30 min and 60 min post injection
Protocol: Hot plate latency test was performed under red light on the metal surface of hot plate analgesia meter (IITC, Life science, CA). Animals were placed individually on the surface of hot plate maintained at a constant temperature 54±1° C. The anti-nociceptive response was latency recorded from the time when animal was placed on the heated surface until the behavior response show licking of hind paw to avoid thermal nociception. A maximum hot plate latency of 30 sec was used for each animal to prevent paw tissue damage. Base line nociceptive latency was obtained for each animal prior to any drug administration. Thereafter, groups of animals were treated with different concentration of different derivatives of benzothiophene and well known NSAIDs. […] Subsequent nociceptive response latency for each animal was determined at 30 and 60 min after drug administration. […] In continuation of tail flick latency assay, the anti-nociceptive effect of the compounds was monitored. Rats treated as described above were subjected to determination of thermal nociceptive pain. Rats were confined in restrainer and allowed to accommodate. The tail withdrawal test consisted of immersing the posterior 8-10 cm of the tail in hot water bath maintained at 54±1° C. Withdrawal latency for tail flicking was measured. A maximum tail flick latency of 20 sec was permitted to minimize tissue damage.

[2] = Hot plate latency test (thermal hyperalgesia); assay type: in vivo, rats
Protocol: The animals were housed in an animal house facility of National Institute of Immunology, India, with controlled temperature (22±2° C.) under a 12/12 h light/dark cycle. They had free access to food and water ad libitum. All experiments were conducted according to the guidelines of the international association for the study of pain and approved by the institutional ethical committee for animal research. All in vivo experiments were carried out on inbred male […] rats ( 200-320 g body weight). Same age and equal body weight of animals were used according to experiments. No animals were used for more than one experiment. Most popular non-steroidal anti-inflammatory drugs which are widely use for treatment of chronic and inflammatory pain, such as Ibuprofen, Naproxen, Ketoprofen, Aspirin, Nimesulide, Indomethacine were purchased from Cayman Chemicals, USA and used to evaluate the efficacy of drugs in animal model. These drugs and different derivatives of Benzothiophene were dissolved in minimum volume of Dimethyl sulfoxide (DMSO) and further diluted in Phosphate buffer saline prior to use. […] Withdrawal latency for tail flicking was measured. […] NSAIDs is commonly evaluated by hot plate latency assay whereby animals are exposed to thermal stimulus (54 degree […] time for hind paw licking is measured as behavioural response for pain.

[3] = test system: Plasmodium falciparum 3D7; assay: In vitro inhibition of P. falciparum 3D7 blood-stage parasites; assay type: cell-based
Protocol: Benzothiophene carboxamide derivatives of the present invention were checked for their anti-parasitic activity against 3D7 (chloroquine sensitive strain) in an in vitro culture. […] To find out parasite stage where these compounds act, synchronised ring stage culture of P. falciparum was treated with 2.5 μM concentration of compounds 6 and 7. […] When compounds 6 and 7 were added at the trophozoite stage the cells could not proceed to the schizont stage indicating the growth inhibition occurs at trophozoite stage.
Synchronised culture of P. falciparum 3D7 was treated with 2.5 μM compound 10 and 11 at the ring stage.

[4] = test system: blood-stage P. berghei ANKA; assay: Experimental cerebral malaria in C57BL/6 mice; assay type: in vivo; conditions: for Mean Survival Days (Observed for 25 days): 5 mg/kg body weight daily for six days
Protocol: C57BL/6 mice were infected with blood-stage P. berghei ANKA as discussed in the experimental section. After 24 hours of infection mice were treated intravenously with various doses of inhibitors. It was observed that all control mice developed hypothermia by day 2, ataxia and convulsions by day 3 and died by day 6, whereas inhibitor treated groups had considerably higher longevity (11-24 days). Though each group of mice developed hypothermia by day 4, convulsions and ataxia development were delayed in case of treated mice. […] The mice treated with 2.5 mg/kg body weight survived for 18 days. Even at or below 1 mg/kg body weight of inhibitor dose, the mice survived for 11 days, but paralysis and ataxia development occurred on Day 7.
[…]. The mice were treated for 6 days. […]. Chloroquine was used as the control drug. […].
Therefore, compounds 10 and 11 were also administered at 5 mg/Kg body weight. The compounds were administered through intraperitoneal, peroral, subcutaneous and intravenous routes. Compound 10 and 11 were administered once daily for 6 days. […]. The mean survival days for this treatment group was 16 (FIG. 12c and Table III). […]. Chloroquine was used as the control drug.

purified PfENR [5] = molecular target: T1, purified PfENR (Plasmodium falciparum, UniProt Q9BH77); assay: PfENR inhibition, standard enzyme assay; assay type: biochemical; conditions: read-out: Inhibition of PfENR (IC50 μM)
T1 sequence (Q9BH77 22-432): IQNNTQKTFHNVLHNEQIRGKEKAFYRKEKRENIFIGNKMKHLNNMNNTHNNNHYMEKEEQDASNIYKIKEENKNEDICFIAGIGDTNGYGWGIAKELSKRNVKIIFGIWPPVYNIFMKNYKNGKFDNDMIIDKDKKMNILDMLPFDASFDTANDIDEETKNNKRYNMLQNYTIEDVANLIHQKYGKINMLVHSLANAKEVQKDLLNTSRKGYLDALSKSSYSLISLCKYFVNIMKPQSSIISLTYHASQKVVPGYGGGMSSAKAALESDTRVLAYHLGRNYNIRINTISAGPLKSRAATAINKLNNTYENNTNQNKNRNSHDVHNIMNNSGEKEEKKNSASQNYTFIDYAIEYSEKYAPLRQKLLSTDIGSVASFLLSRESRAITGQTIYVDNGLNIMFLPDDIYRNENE
Protocol: (§1) PfENR activity was determined using standard assay described earlier.

HepG2 cells = assay: Toxicity to HepG2 cells; assay type: cell-based; conditions: one day treatment
purified PfENR [6] = molecular target: T1, purified PfENR; assay: PfENR inhibition kinetics, cofactor potency and progress curve analysis; assay type: biochemical
Protocol: as §1
The accumulation of product further decreased when compound 6 was preincubated with the enzyme (curve c). On addition of NAD+ to this reaction the rate of product accumulation further decreased (curve d).
Progress curves for inhibition by varying concentrations of compounds 6 and 7 were examined in detail (FIGS. 16a and 16b). From the progress curve analyses, it was inferred that for each concentration of the inhibitors the initial and the steady state velocity decreased exponentially with time. At higher inhibitor concentration, steady state is reached rapidly with a decrease in steady state velocity (vs). […] Progress curves were analysed using equation 3a from which a series of Kobs values were obtained for each concentration of inhibitor.

[7] = Mechanical hyperalgesia, Randall-Selitto, carrageenan induced; assay type: in vivo, rats; conditions: 15 mg/kg b wt., after 1 hrs, basal level in 5 hrs
Protocol: Mechanical hyperalgesia was measured as hind limb withdrawal threshold in response to a mechanical stimulus applied to hind paws of rat using Randall-selitto meter, Randall and Selitto, 1957. To determine the mechanical hyperalgesia, the force was applied with increased pressure at a constant rate until the animal withdrew its limb. The base line nociceptive threshold was measured before induction of hyperalgesia. Moreover, hyperalgesia was induced by carrageenan and then groups of animal were treated with compound 4, compound 6 and compound 8 (15 mg/kg body weight) and Ibuprofen (50 mg/kg body weight). Control group was treated with physiological saline. […] The anti-nociceptive efficacy of the compounds has been evaluated the efficacy with paw withdrawal threshold latency of animals.

**Q.** Which IC50 ([1]; Plasmodium berghei, 48 h, hepatic cell stages of P. berghei, two days treatment) does the source give for `O=C(NCc1ccc(F)cc1)c1sc2ccccc2c1Br` [Compound 6, N-(4-fluorobenzyl)-3-bromobenzo[b]thiophene-2-carboxamide] here?
**A.** 51 µM

**Q.** What about the “Therapeutic Index (TI) [=TC50/IC50]” value ([1]; TC50 HepG2 / IC50 EEFs) of the same molecule?
**A.** 39.0 ± 4

**Q.** And the “Anti-nociceptive response, tail flick latency assay” value (Tail flick latency test)?
**A.** better anti-nociceptive response than the Ibuprofen

**Q.** What about the “MPE index, hot plate latency assay” value ([2]; 15 mg/kg b. wt. i.p., 30 and 60 min) of the same molecule?
**A.** preeminent analgesic activity compared to other compounds

**Q.** And the “Analgesic activity compared with Ibuprofen, hot plate” value ([2]; compounds 15 mg/kg b. wt. vs Ibuprofen 50 mg/kg b. wt.)?
**A.** potent analgesic activity at much lower concentration than Ibuprofen

**Q.** And the “Stage of parasite growth arrest” value ([3]; 2.5 μM, added at ring stage, P. falciparum 3D7)?
**A.** arrested at the trophozoite stage

**Q.** What about the “Parasites observed to be dead” value ([3]; 2.5 μM, synchronised ring stage culture of P. falciparum 3D7) of the same molecule?
**A.** ~90%

**Q.** And the IC50 ([3]; Erythrocyte, growth inhibition, red blood cell stages of Plasmodium falciparum 3D7 (chloroquine sensitive), read-out: P. falciparum (IC50 μM))?
**A.** 1 ± 0.3 µM

**Q.** And the “Survival, dose determination” value ([4]; 2.5 mg/kg body weight intravenously, C57BL/6 mice)?
**A.** 18 days

**Q.** And the “Kidney and liver functions (urea, creatinine and glucose levels)” value ([4]; 5 mg/kg body weight)?
**A.** normal kidney and liver functions

**Q.** What about the “Survival, dose determination” value ([4]; 5 mg/kg body weight intravenously, C57BL/6 mice) of the same molecule?
**A.** 24 days

**Q.** What about the “Survival, dose determination” value ([4]; 10 mg/kg body weight intravenously, C57BL/6 mice) of the same molecule?
**A.** 20 days

**Q.** What about the “Mean Survival Days (Observed for 25 days)” value (from here on “Mean Survival Days”) ([4]; Intraperitoneal, C57BL/6 mice, 5 mg/kg) of the same molecule?
**A.** 20 ± 0.9 days

**Q.** And the “Mean Survival Days” value ([4]; Intraperitoneal, C57BL/6 mice, listed as compound 6, 5 mg/kg)?
**A.** 21 days

**Q.** And the “Mean Survival Days” value ([4]; Intravenous, C57BL/6 mice, 5 mg/kg)?
**A.** 24 ± 2.0 days

**Q.** What about the “Mean Survival Days” value ([4]; Intravenous, C57BL/6 mice, listed as compound 6, 5 mg/kg) of the same molecule?
**A.** 24 days

**Q.** And the “Mean Survival Days” value ([4]; Per oral, C57BL/6 mice)?
**A.** 12 ± 1.2 days

**Q.** What about the “Mean Survival Days” value ([4]; Subcutaneous, C57BL/6 mice, 5 mg/kg) of the same molecule?
**A.** 18 ± 1.3 days

**Q.** What about the “Mean Survival Days” value ([4]; Subcutaneous, C57BL/6 mice, listed as compound 6, 5 mg/kg) of the same molecule?
**A.** 21 days

**Q.** What about the “Survival, dose determination” value ([4]; at or below 1 mg/kg body weight intravenously, C57BL/6 mice) of the same molecule?
**A.** 11 days

**Q.** What about the “Parasitemia levels (Peter's test)” value ([4]; intravenous treatment, C57BL/6 mice) of the same molecule?
**A.** undetectable level by Day 18

**Q.** And the Increase of longevity ([4]; oral route, 5 mg/kg body weight, 6 days treatment)?
**A.** 5 days

**Q.** And the IC50 (purified PfENR [5])?
**A.** 0.115 ± 0.12 µM

**Q.** What about the “TC50 for HepG2 cells” value (HepG2 cells) of the same molecule?
**A.** 2000 ± 200 µM

**Q.** And the “Effect of NAD+ on binding to PfENR (cofactor potency assay)” value (purified PfENR [6]; 10 μM NAD+ added to preincubated mixture)?
**A.** potentiate the binding

**Q.** What about the “Inhibition kinetics with respect to NADH” value (purified PfENR [6]; Dixon plot, cofactor NADH) of the same molecule?
**A.** competitive kinetics with NADH

**Q.** And the “Inhibition kinetics with respect to crotonoyl CoA” value (purified PfENR [6]; Dixon plot, substrate crotonoyl CoA)?
**A.** uncompetitive against crotonoyl CoA

**Q.** What about the “Binding behaviour from progress curves” value (purified PfENR [6]; inhibitor 0-750 nM) of the same molecule?
**A.** slow tight binding behaviour

**Q.** What about the “Isomerization rate constant (k5 * 10^−2) (s^−1)” value (purified PfENR [6]; purified PfENR, progress curves) of the same molecule?
**A.** 1.19 ± .045 10^−2 s^−1

**Q.** And the koff (purified PfENR [6]; purified PfENR, progress curves, read-out: Dissociation rate constant (k6* 10^−3))?
**A.** 0.001 s⁻¹

**Q.** And the Ki (purified PfENR [6]; purified PfENR, read-out: Dissociation constant (Ki))?
**A.** 0.0489 µM

**Q.** What about the “Mechanical hyperalgesia, paw withdrawal threshold” value [7] of the same molecule?
**A.** significantly reversed the mechanical hyperalgesia
